Molecular target: T1, hCRTH2 (Homo sapiens, UniProt Q9Y5Y4)
T1 construct: expressed in transfected cells; host or cells: HEK (human embryonic kidney) cells expressing hCRTH2; membrane preparation
T1 sequence (Q9Y5Y4 1-395): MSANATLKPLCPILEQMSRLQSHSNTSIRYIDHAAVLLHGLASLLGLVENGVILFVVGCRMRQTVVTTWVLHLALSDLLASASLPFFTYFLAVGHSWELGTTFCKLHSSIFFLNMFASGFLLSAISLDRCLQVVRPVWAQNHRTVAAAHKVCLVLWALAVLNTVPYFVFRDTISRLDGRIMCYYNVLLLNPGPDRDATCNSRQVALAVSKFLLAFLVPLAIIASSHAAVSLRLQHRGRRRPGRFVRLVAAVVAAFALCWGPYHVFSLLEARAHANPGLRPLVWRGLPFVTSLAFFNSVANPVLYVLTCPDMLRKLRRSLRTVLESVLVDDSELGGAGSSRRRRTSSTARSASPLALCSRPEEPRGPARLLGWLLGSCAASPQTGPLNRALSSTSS
Test: Radioligand binding assay ([3H]PGD2 competition, HEK-hCRTH2 membranes)
Details: [3H]PGD2 binding
Outline: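 Displacement of 3.0 nM [3H]PGD2 from human CRTH2 expressed in HEK membranes was measured at room temperature over 60 min. Unlabelled PGD2 at 10 μM gave non-specific binding.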

| Ki (rated A-E (Table A)) | Ki (values in text) | Compound |
| --- | --- | --- |
| 2.1 to 20 nM | – | O=C(O)CCCCc1nc2cc(C(=O)N3CCOCC3)ccc2nc1-c1ccc(Cl)cc1 [compound 177, 3-(4-chlorophenyl)-7-(4-morpholinylcarbonyl)-2-quinoxalinepentanoic acid] |
| 0.1 to 2 nM | – | C[C@@H](NC(=O)c1ccc2nc(-c3ccc(Cl)cc3)c(CCCCC(=O)O)nc2c1)c1cccc(F)c1 [compound 178, 3-(4-chlorophenyl)-7-[[[1(R)-(3-fluorophenyl)ethyl]amino]carbonyl]-2-quinoxalinepentanoic acid] |
| 0.1 to 2 nM | – | C[C@H](NC(=O)c1ccc2nc(-c3ccc(Cl)cc3)c(CCCCC(=O)O)nc2c1)c1cccc(F)c1 [compound 179, 3-(4-chlorophenyl)-7-[[[1(S)-(3-fluorophenyl)ethyl]amino]carbony!]-2-quinoxalinepentanoic acid] |
| 0.1 to 2 nM | 0.6 nM | C[C@@H](NC(=O)c1ccc2nc(-c3ccc(Cl)cc3)c(CCCCC(=O)O)nc2c1)c1cccc(Cl)c1 [compound 180, 3-(4-chlorophenyl)-7-[[[1(R)-(3-chlorophenyl)ethyl]amino]carbonyl]-2-quinoxalinepentanoic acid] |
| 0.1 to 2 nM | – | C[C@H](NC(=O)c1ccc2nc(-c3ccc(Cl)cc3)c(CCCCC(=O)O)nc2c1)c1cccc(Cl)c1 [compound 181, 3-(4-chlorophenyl)-7-[[[1(S)-(3-chlorophenyl)ethyl]amino]carbonyl]-2-quinoxalinepentanoic acid] |
| 2.1 to 20 nM | – | C[C@@H](NC(=O)c1ccc2nc(-c3ccc(Cl)cc3)c(CCCCC(=O)O)nc2c1)c1cccnc1 [compound 182, 3-(4-chlorophenyl)-7-[[[1(R)-(3-pyridinyl)ethyl]amino]carbonyl]-2-quinoxalinepentanoic acid] |
| 2.1 to 20 nM | – | C[C@H](NC(=O)c1ccc2nc(-c3ccc(Cl)cc3)c(CCCCC(=O)O)nc2c1)c1cccnc1 [compound 183] |
| 0.1 to 2 nM | – | O=C(O)CCCCc1nc2cc(C(=O)N[C@@H]3CCCc4cc(F)ccc43)ccc2nc1-c1ccc(Cl)cc1 [compound 184, 3-(4-chlorophenyl)-7-[[(6-fluoro-1,2,3,4-tetrahydro-1(R)-naphthalenyl)amino]carbonyl]-2-quinoxalinepentanoic acid] |
| 2.1 to 20 nM | – | O=C(O)CCCCc1nc2cc(C(=O)N[C@H]3CCCc4cc(F)ccc43)ccc2nc1-c1ccc(Cl)cc1 [compound 185, 3-(4-chlorophenyl)-7-[[(6-fluoro-1,2,3,4-tetrahydro-1(S)-naphthalenyl)amino]carbonyl]2-quinoxalinepentanoic acid] |
| 0.1 to 2 nM | – | O=C(O)CCCCc1nc2cc(C(=O)N[C@@H]3CCCc4cc(Cl)ccc43)ccc2nc1-c1ccc(Cl)cc1 [compound 186, 3-(4-chlorophenyl)-7-[[(6-chloro-1,2,3,4-tetrahydro-1(R)-naphthalenyl)amino]carbonyl]-2-quinoxalinepentanoic acid] |
| 2.1 to 20 nM | – | O=C(O)CCCCc1nc2cc(C(=O)N[C@H]3CCCc4cc(Cl)ccc43)ccc2nc1-c1ccc(Cl)cc1 [compound 187, 3-(4-chlorophenyl)-7-[[(6-chloro-1,2,3,4-tetrahydro-1(S)-naphthalenyl)amino]carbonyl]-2-quinoxalinepentanoic acid] |
| 0.1 to 2 nM | – | O=C(O)CCCCc1nc2cc(C(=O)N3CCN(c4ccc(F)cc4)CC3)ccc2nc1-c1ccc(Cl)cc1 [compound 189, 3-(4-chlorophenyl)-7-[[4-(4-fluorophenyl)-1-piperazinyl]carbonyl]-2-quinoxalinepentanoic acid] |
| 0.1 to 2 nM | – | O=C(O)CCCCc1nc2cc(C(=O)N3CCN(c4ccccc4F)CC3)ccc2nc1-c1ccc(Cl)cc1 [compound 190, 3-(4-chlorophenyl)-7-[[4-(2-fluorophenyl)-1-piperazinyl]carbonyl]-2-quinoxalinepentanoic acid] |
| 0.1 to 2 nM | – | O=C(O)CCCCc1nc2cc(C(=O)N3CCN(c4ccc(Cl)cc4)CC3)ccc2nc1-c1ccc(Cl)cc1 [compound 191, 3-(4-chlorophenyl)-7-[[4-(4-chlorophenyl)-1-piperazinyl]carbonyl]-2-quinoxalinepentanoic acid] |

— patent US9469615B2, “Quinoxalines and AZA-quinoxalines as CRTH2 receptor modulators” (Merck Sharp & Dohme Corp., priority 2010, dated 2016)
